The source of these data is patent US10449186B2, “Phenylethynyl-substituted benzenes and heterocycles for the treatment of cancer” (UNIVERSITY OF KENTUCKY RESEARCH FOUNDATION, priority 2017, dated 2019).

Data set [1] concerns LS174T colon cancer cells. As to the kind of experiment: LS174T cell proliferation assay. The following applies: for inhibition at 1 µM / inhibition at 10 µM / inhibition at 0.1 µM / IC50 / inhibition at 0.03 µM: Homo sapiens, LS174T; for IC50: read-out: IC50, LS174T cell proliferation assay. The arrangement: effects on LS174T colon cancer cell proliferation (Table 3): unit not given here. The data set is classed as cell-based. As to the method: Cell proliferation assay. LS174T cells were grown in RPMI medium (Mediatech) supplemented with 5% fetal bovine serum and 1% penicillin/streptomycin. For cell proliferation assays, 3×10^4 cells/well growing in 12-well plates were treated with DMSO or inhibitors. The cell numbers and viability were analyzed by Vi-Cell Cell Viability Analyzer after 4 days. The IC50 values were calculated with GraphPad Prim 5.

The subject of another data set is cyclin D1. As to the kind of experiment: Western blot, cyclin D1 expression in LS174T cells. The following applies: 300 nM. The data set is classed as cell-based. As to the method: (§1) FIG. 2A is a western blot showing the effects of 4-((2,6-difluorophenyl)ethynyl)-N,N-dimethylaniline (2), 4-((2,6-difluorophenyl)ethynyl)-N,N-dimethylisoquinolin-1-amine (5nn), and 4-((2,6-difluorophenyl)ethynyl)-N-methylisoquinolin-1-amine (5oo) on the expression of […] and p21^Wif1/Cip1 in LS174T cells at 300 nM concentrations.
(§2) Western blotting. Western blotting was performed as described previously. The following antibodies were used: anti-c-myc (Epitomics, 1472-1), anti-p21^Wif1/Cip1 (Cell Signaling, 2947), anti-β-tubulin (DSHB, E7).
Background: A western blot detects proteins with antibodies after separation by electrophoresis.

In the next data set the test system is p21^Wif1/Cip1. As to the kind of experiment: Western blot, p21^Wif1/Cip1 expression in LS174T cells. Type of data set: cell-based. The following applies: 300 nM. As to the method:
as §1, §2

Data set [2] concerns LS174T colon cancer cells. Conditions: data from Sviripa et al. 2014, cited from earlier work; for inhibition of proliferation (%) of colon cancer LS174T cells: Table 1; for inhibition of cell proliferation (%) of colon cancer LS174T cells: Table 2.
Where [3] appears, read: read-out: inhibition of cell proliferation (%) of colon cancer LS174T cells.

As a reminder, the melting point is the temperature of the solid-liquid transition.

Read-outs that look alike come from different tables or passages of the source.

For the compound `CN1CCN(c2ncc(C#Cc3c(F)cccc3F)c3ccccc23)CC1` [Compound 5pp, 4-((2,6-Difluorophenyl)ethynyl)-1-(4-methylpiperazin-1-yl)isoquinoline], in data set [1] (setting [3]), the inhibition at 1 µM turned out to be 23.2 ± 9.4% and the inhibition at 10 µM is 100%. Also, the water solubility entry in the data set “Water solubility” (hydrochloride salts) is recorded as “completely water-soluble”.
For the compound `CN(C)c1ncc(C#Cc2c(F)cccc2F)c2ncccc12` [Compound 5qq, 8-((2,6-Difluorophenyl)ethynyl)-N,N-dimethyl-1,6-naphthyridin-5-amine], the melting point lay within 149 to 150 °C. Further, in data set [1] (read-out: inhibition of LS174T colon cancer cell proliferation), the inhibition at 1 µM is > 75%. Further, in data set [1] (setting [3]), the inhibition at 0.1 µM was 59.5 ± 3.5%, the inhibition at 1 µM came to 87.9 ± 0.8% and the inhibition at 10 µM was 85.2 ± 1%. Moreover, the water solubility entry in “Water solubility” (hydrochloride salts) is given as “completely water-soluble”.
As to `CNc1ncc(C#Cc2c(F)cccc2F)c2ccccc12` [Compound 5oo, 4-((2,6-Difluorophenyl)ethynyl)-N-methylisoquinolin-1-amine], the melting point was in the range of 118 to 120 °C. In the data set with cyclin D1, the “cyclin D1 expression (western blot)” value is “inhibited cyclin D1 expression”. For the same compound, in data set [1], the IC50 was 4.2 ± 0.2 nM. Moreover, in data set [1] (setting [3]), the inhibition at 0.03 µM came to 94.5 ± 1.5%, the inhibition at 0.1 µM worked out at 99.5 ± 0.5%, the inhibition at 1 µM was 99.8 ± 0.2% and the inhibition at 10 µM was 98.9 ± 1%. Further, the “p21^Wif1/Cip1 expression (western blot)” value with p21^Wif1/Cip1 is “induced p21^Wif1/Cip1”.
Turning to `CN(C)c1ccc(C#Cc2c(F)cccc2F)cc1` [Compound 2, 4-((2,6-difluorophenyl)ethynyl)-N,N-dimethylaniline], in the data set with cyclin D1, the “cyclin D1 expression (western blot)” value is listed as “inhibited cyclin D1 expression”. Further, in data set [1], the IC50 was found to be 25.1 ± 1.3 nM. Also, the “inhibition of proliferation (%) of colon cancer LS174T cells” value in data set [2] (100 nM) is on record as 85.2%; in data set [2] (1 μM), 99.5%. The “inhibition of cell proliferation (%) of colon cancer LS174T cells” value in data set [2] (30 nM) is given as 57 ± 1.2%; in data set [2] (100 nM) it was 85.2 ± 0.5%; in data set [2] (1 μM), 99.5 ± 0.1%. In the data set with p21^Wif1/Cip1, the “p21^Wif1/Cip1 expression (western blot)” value is “induced p21^Wif1/Cip1”. Further, in “Water solubility” (parent compound), the water solubility result is on record as “sparingly water-soluble”.
`Fc1cccc(F)c1C#Cc1ccc(-n2cccc2)cc1` [Compound 4d, 1-(4-((2,6-Difluorophenyl)ethynyl)phenyl)-1H-pyrrole] yielded a melting point of 122 to 124 °C. In addition, in data set [1] (100 nM), the “activity in a cell proliferation assay” value was “considerably diminished activity”. In data set [1] (1 μM), the “activity in a cell proliferation assay” value is reported as “comparable to 4-((2,6-difluorophenyl)ethynyl)-N,N-dimethylaniline (2)”. For the same compound, the inhibition at 0.1 µM in data set [1] (Table 1, 100 nM, read-out: inhibition of proliferation (%) of colon cancer LS174T cells) was 11%. In addition, the inhibition at 1 µM in data set [1] (Table 1, 1 μM, read-out: inhibition of proliferation (%) of colon cancer LS174T cells) was 77.5%. In addition, in data set [1] (Table 1, 10 μM, read-out: inhibition of proliferation (%) of colon cancer LS174T cells), the inhibition at 10 µM came out at 96.7%.
In the case of `Fc1cccc(F)c1C#Cc1cccc2cccnc12` [Compound 5y, 8-((2,6-Difluorophenyl)ethynyl)quinoline], the melting point lay in the range of 108 to 110 °C. Further, in data set [1] (setting [3]), the inhibition at 1 µM turned out to be 47.6 ± 3.5% and the inhibition at 10 µM was determined as 92.7 ± 2.9%.
As to `Fc1cccc(F)c1C#Cc1cnc(Cl)c2ccccc12` [Compound 5kk, 1-Chloro-4-((2,6-difluorophenyl)ethynyl)isoquinoline], the melting point lay in the range of 145 to 146 °C. For the same compound, in data set [1] (setting [3]), the inhibition at 0.1 µM turned out to be 0.8 ± 36.1%, the inhibition at 1 µM came to 48.1 ± 18.1% and the inhibition at 10 µM stood at 94 ± 0.5%.
In turn, `Nc1ccnc2cc(C#Cc3c(F)cccc3F)ccc12` [Compound 5dd, 7-((2,6-Difluorophenyl)ethynyl)quinolin-4-amine] had a melting point of 219 to 221 °C. Besides, the inhibition at 1 µM in data set [1] (Table 2, 1 μM, read-out: inhibition of cell proliferation (%) of colon cancer LS174T cells) turned out to be 23.6 ± 2.5%. For the same compound, the inhibition at 10 µM in data set [1] (Table 2, 10 μM, read-out: inhibition of cell proliferation (%) of colon cancer LS174T cells) turned out to be 97.7 ± 2.2%.
Compound `CN(C)c1ncc(C#Cc2c(F)cccc2F)c2ccccc12` [Compound 5nn, 4-((2,6-difluorophenyl)ethynyl)-N,N-dimethylisoquinolin-1-amine] registered a melting point of 122 to 124 °C. Besides, the “cyclin D1 expression (western blot)” value in the data set on cyclin D1 is listed as “inhibited cyclin D1 expression”. In addition, the IC50 in data set [1] was 11.8 ± 1.5 nM. Moreover, in data set [1] (setting [3]), the inhibition at 0.03 µM was found to be 86 ± 2%, the inhibition at 0.1 µM was found to be 81.7 ± 2.1%, the inhibition at 1 µM is 99.5 ± 0.1% and the inhibition at 10 µM turned out to be 97.6 ± 1.5%. Moreover, the “p21^Wif1/Cip1 expression (western blot)” value in the data set with p21^Wif1/Cip1 is listed as “induced p21^Wif1/Cip1”.
`CNc1ccc(C#Cc2c(F)cncc2F)cc1` [Compound 7c, 4-((3,5-Difluoropyridin-4-yl)ethynyl)-N-methylaniline] had a melting point of 149 to 151 °C. The “effects on LS174T colon cancer cell proliferation (Table 3)” value (“effects” for short) in data set [1] (30 nM) was 20.3. Also, the “effects” value in data set [1] (100 nM) is listed as 49.5. For the same compound, in data set [1] (300 nM), the “effects” value came to 62.6.
Consider `Fc1cccc(F)c1C#Cc1cccc2ncccc12` [Compound 5v, 5-((2,6-Difluorophenyl)ethynyl)quinoline], for which the melting point lay in the range of 98 to 100 °C. In data set [1] (setting [3]), the inhibition at 1 µM is 43.1 ± 11.2% and the inhibition at 10 µM was determined as 94.7 ± 2.9%.
`Fc1ccc2ccnc(C#Cc3c(F)cccc3F)c2c1` [Compound 5ll, 1-((2,6-Difluorophenyl)ethynyl)-7-fluoroisoquinoline]: the melting point lay within 177 to 178 °C. In data set [1] (setting [3]), the inhibition at 0.1 µM worked out at 0%, the inhibition at 1 µM was determined as 71.1 ± 3.5% and the inhibition at 10 µM was 96.2 ± 0.1%.
The compound `CN(C)c1ccc2cc(C#Cc3c(F)cccc3F)ccc2n1` [Compound 5ee, 6-((2,6-Difluorophenyl)ethynyl)-N,N-dimethylquinolin-2-amine] yielded a melting point of 142 to 144 °C. In data set [1] (setting [3]), the inhibition at 1 µM amounted to 2 ± 11.9% and the inhibition at 10 µM stood at 38.7 ± 4.3%.
